Data on 26 compounds can be found in US20110312945A1, “CRTH2 MODULATORS” (priority 2008, published 2011).

As usually defined, the IC50 is the concentration that gives 50% inhibition.

Structures are written as SMILES.

This assay addresses T1, CRTH2 (Homo sapiens, UniProt Q9Y5Y4).
T1 construct: polymorphonuclear cells (0.5 ml; 10^6/ml cells) in PBS containing 0.9 mM CaCl2 and 0.5 mM MgCl2; endogenous in cells; host or cells: polymorphonuclear cells (eosinophils gated by flow cytometry)
T1 sequence (Q9Y5Y4 1-395): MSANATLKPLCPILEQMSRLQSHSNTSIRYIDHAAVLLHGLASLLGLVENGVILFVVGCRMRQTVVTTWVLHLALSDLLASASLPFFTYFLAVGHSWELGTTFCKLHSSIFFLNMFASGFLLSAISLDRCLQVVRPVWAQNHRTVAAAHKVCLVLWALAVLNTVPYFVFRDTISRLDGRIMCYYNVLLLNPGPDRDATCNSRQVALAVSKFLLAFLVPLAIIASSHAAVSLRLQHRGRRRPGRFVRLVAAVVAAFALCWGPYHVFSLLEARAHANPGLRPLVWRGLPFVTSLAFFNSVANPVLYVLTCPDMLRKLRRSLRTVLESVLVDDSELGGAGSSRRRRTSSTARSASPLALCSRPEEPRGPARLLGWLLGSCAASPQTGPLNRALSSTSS
In words: DPBS CD11b Antagonist Assay. Format: cell-based. Conditions: polymorphonuclear cells in PBS, eosinophil CD11b expression, challenge with 15R-Methyl-PGD2 (10 nM). As to the method:
DPBS CD11b Antagonist Assay. The potential CRTH2 antagonist activity of certain compounds was tested using a CD11b expression assay using essentially the method described by Monneret et al. (J Pharmacol Exp Ther 304:349-55, 2003). Briefly, polymorphonuclear cells (0.5 ml; 10^6/ml cells) in PBS containing 0.9 mM CaCl2 and 0.5 mM MgCl2) were preincubated with various concentrations of test compounds at room temperature for 10 minutes before they were challenged with the agonist 15R-Methyl-PGD2 (10 nM). The incubations were terminated by the addition of ice-cold FACSFlow (BD Biosciences; Cat# 342003) and centrifugation (400 g for 5 minutes at 4° C.). The cells were then incubated for 30 minutes at 4° C. with a mixture of PE-labeled mouse anti-human VLA-4 (5 μl; BD Biosciences) and FITC-labeled mouse anti-human CD11b (10 μl; Beckman Coulter). The cells were then incubated with Optilyse C (0.25 ml; Beckman Coulter) for 15 minutes, centrifuged, and then fixed in PBS (0.4 ml; calcium and magnesium free) containing 1% formaldehyde. The distribution of fluorescence intensities among 60,000 cells was measured by flow cytometry. Eosinophils were gated out on the basis of their granularity (high side scatter) and labeling with VLA-4 (PE fluorescence). CD11b was then measured in the eosinophil region on the basis of fluorescence due to FITC. All data were corrected for the value obtained for the corresponding isotope control antibody.
`Cc1c(Cc2ccccc2S(=O)(=O)N2CCCC2)c2c(n1CC(N)=O)CC(C)(C)CC2=O` [Example I-84, 2-(2,6,6-trimethyl-4-oxo-3-(2-(pyrrolidin-1-ylsulfonyl)benzyl)-4,5,6,7-tetrahydro-1H-indol-1-yl)acetamide] returned an IC50 greater than 500 nM.

As to `Cc1c(Cc2cccc(S(=O)(=O)N3CCOCC3)c2)c2c(n1CC(=O)O)CCC(C)(C)C2` [Example I-27, 2-(2,5,5-trimethyl-3-(3-(morpholinosulfonyl)benzyl)-4,5,6,7-tetrahydro-1H-indol-1-yl)acetic acid], the IC50 was in the range of 5 to 100 nM.

On to `CCOC(=O)Cn1c(C)c(Sc2ccc(Br)cc2S(=O)(=O)N2CCCC2)c2c1CC(C)(C)CC2=O` [Example I-53, ethyl 2-(3-(4-bromo-2-(pyrrolidin-1-ylsulfonyl)phenylthio)-2,6,6-trimethyl-4-oxo-4,5,6,7-tetrahydro-1H-indol-1-yl)acetate], for which the IC50 was greater than 500 nM.

Consider `Cc1c(Cc2ccccc2S(=O)(=O)N2CCOCC2)c2c(n1CC(=O)O)CC(C)(C)CC2` [Example I-26, 2-(2,6,6-trimethyl-3-(2-(morpholinosulfonyl)benzyl)-4,5,6,7-tetrahydro-1H-indol-1-yl)acetic acid], for which the IC50 is less than 5 nM.

As for `CCOC(=O)Cn1c(C)c(Sc2ccc(F)cc2S(=O)(=O)N2CCCC2)c2c1CC(C)(C)CC2=O` [Example I-57, Ethyl 2-(3-(4-fluoro-2-(pyrrolidin-1-ylsulfonyl)phenylthio)-2,6,6-trimethyl-4-oxo-4,5,6,7-tetrahydro-1H-indol-1-yl)acetate], the IC50 lay within 5 to 100 nM.

On to `Cc1c(Cc2ccccc2S(=O)(=O)N2CCCC2)c2c(n1CC(=O)O)CCCC2=O` [Example I-77, 2-(2-methyl-4-oxo-3-(2-(pyrrolidin-1-ylsulfonyl)benzyl)-4,5,6,7-tetrahydro-1H-indol-1-yl)acetic acid], for which the IC50 was less than 5 nM.

`COC(=O)Cn1c(C)c(Cc2ccccc2S(=O)(=O)N2CCOCC2)c2c1CC(C)(C)CC2=O` [Example I-59, methyl 2-(2,6,6-trimethyl-3-(2-(morpholinosulfonyl)benzyl)-4-oxo-4,5,6,7-tetrahydro-1H-indol-1-yl)acetate] came in with an IC50 of 5 to 100 nM.

For the compound `Cc1c(Cc2ccccc2S(=O)(=O)C2CCCCC2)c2c(n1CC(=O)O)CC(C)(C)CC2=O` [Example I-82, 2-(3-(2-(cyclohexylsulfonyl)benzyl)-2,6,6-trimethyl-4-oxo-4,5,6,7-tetrahydro-1H-indol-1-yl)acetic acid], the IC50 is less than 5 nM.

Consider `CCOC(=O)Cn1c(C)c(Sc2ccc(C)cc2S(=O)(=O)N2CCCC2)c2c1CC(C)(C)CC2=O` [Example I-54, ethyl 2-(2,6,6-trimethyl-3-(4-methyl-2-(pyrrolidin-1-ylsulfonyl)phenylthio)-4-oxo-4,5,6,7-tetrahydro-1H-indol-1-yl)acetate], for which the 50% inhibitory concentration (IC50) lay in the range of 100 to 500 nM.

Take `Cc1c(Cc2ccccc2S(=O)(=O)N2CCCC2)c2c(n1CC(=O)OCCN1CCOCC1)CC(C)(C)CC2=O` [Example I-62, 2-morpholinoethyl 2-(2,6,6-trimethyl-4-oxo-3-(2-(pyrrolidin-1-ylsulfonyl)benzyl)-4,5,6,7-tetrahydro-1H-indol-1-yl)acetate]: the 50% inhibitory concentration (IC50) is less than 5 nM.

As to `Cc1c(Sc2ccc(S(=O)(=O)N3CCOCC3)cc2)c2c(n1CC(=O)O)CCC(C)(C)C2` [Example I-37, 2-(2,5,5-trimethyl-3-(4-(morpholinosulfonyl)phenylthio)-4,5,6,7-tetrahydro-1H-indol-1-yl)acetic acid], the IC50 is less than 5 nM.

In the case of `Cc1c(Cc2ccc(S(=O)(=O)N(C)C)cc2)c2c(n1CC(=O)O)CCC(C)(C)C2` [Example I-18, 2-(3-(4-(N,N-Dimethylsulfamoyl)benzyl)-2,5,5-trimethyl-4,5,6,7-tetrahydro-1H-indol-1-yl)acetic acid], the IC50 was less than 5 nM.

For the compound `Cc1c(Cc2ccccc2S(=O)(=O)N(C)C)c2c(n1CC(=O)O)CC(C)(C)CC2=O` [Example I-52, 2-(3-(2-(N,N-dimethylsulfamoyl)benzyl)-2,6,6-trimethyl-4-oxo-4,5,6,7-tetrahydro-1H-indol-1-yl)acetic acid], the half-maximal inhibitory concentration (IC50) was less than 5 nM.

The compound `Cc1c(C(O)c2ccccc2S(=O)(=O)N2CCCC2)c2c(n1CC(=O)O)CC(C)(C)CC2=O` (centres unmarked) [Example I-50, 2-(3-(hydroxy(2-(pyrrolidin-1-ylsulfonyl)phenyl)methyl)-2,6,6-trimethyl-4-oxo-4,5,6,7-tetrahydro-1H-indol-1-yl)acetic acid] showed an IC50 greater than 500 nM.

Compound `COC(=O)Cn1c(C)c(Cc2ccccc2S(=O)(=O)N2CCCC2)c2c1CC(C)(C)CC2=O` [Example I-58, Methyl 2-(2,6,6-trimethyl-4-oxo-3-(2-(pyrrolidin-1-ylsulfonyl)benzyl)-4,5,6,7-tetrahydro-1H-indol-1-yl)acetate] gave an IC50 of 5 to 100 nM.

In turn, `Cc1c(Cc2ccccc2S(=O)(=O)N2CCOCC2)c2c(n1[C@H](C)C(=O)O)CCC(C)(C)C2` [Example I-35, (R)-2-(2,5,5-trimethyl-3-(2-(morpholinosulfonyl)benzyl)-4,5,6,7-tetrahydro-1H-indol-1-yl)propanoic acid] displayed an IC50 of less than 5 nM.

As to `Cc1c(S(=O)(=O)N(C)c2ccccc2)c2c(n1CC(=O)O)CC(C)(C)CC2=O` [Example I-75, 2-(2,6,6-trimethyl-3-(N-methyl-N-phenylsulfamoyl)-4-oxo-4,5,6,7-tetrahydro-1H-indol-1-yl)acetic acid], the IC50 was greater than 500 nM.

In the case of `CCOC(=O)Cn1c(C)c(Cc2ccccc2S(=O)(=O)N2CCOCC2)c2c1CCC(C)(C)C2` [Example I-25, Ethyl 2-(2,5,5-trimethyl-3-(2-(morpholinosulfonyl)benzyl)-4,5,6,7-tetrahydro-1H-indol-1-yl)acetate], the 50% inhibitory concentration (IC50) is 100 to 500 nM.

`Cc1c(Cc2ccccc2S(=O)(=O)N2CCCC2)c2c(n1CC(=O)O)CC(C)(C)C(F)(F)C2=O` [Example I-96, 2-(5,5-difluoro-2,6,6-trimethyl-4-oxo-3-(2-(pyrrolidin-1-ylsulfonyl)benzyl)-4,5,6,7-tetrahydro-1H-indol-1-yl)acetic acid] returned an IC50 of less than 5 nM.

As to `Cc1c(Cc2ccc(S(=O)(=O)NC3CC3)cc2)c2c(n1CC(=O)O)CCC(C)(C)C2` [Example I-15, 2-(3-(4-(N-Cyclopropylsulfamoyl)benzyl)-2,5,5-trimethyl-4,5,6,7-tetrahydro-1H-indol-1-yl)acetic acid], the IC50 was less than 5 nM.

The compound `Cc1c(Cc2ccccc2S(=O)(=O)c2cccs2)c2c(n1CC(=O)O)CC(C)(C)CC2=O` [Example I-81, 2-(2,6,6-trimethyl-4-oxo-3-(2-(thiophen-2-ylsulfonyl)benzyl)-4,5,6,7-tetrahydro-1H-indol-1-yl)acetic acid] yielded an IC50 of less than 5 nM.

In turn, `Cc1c(Cc2ccc(S(=O)(=O)N3CCCCCC3)cc2)c2c(n1CC(=O)O)CCC(C)(C)C2` [Example I-16, 2-(3-(4-(Azepan-1-ylsulfonyl)benzyl)-2,5,5-trimethyl-4,5,6,7-tetrahydro-1H-indol-1-yl)acetic acid] displayed an IC50 of 5 to 100 nM.

As for `CCOC(=O)Cn1c(C)c(Cc2ccccc2S(=O)(=O)N2CCOCC2)c2c1CC(C)(C)CC2=O` [Example I-56, ethyl 2-(2,6,6-trimethyl-3-(2-(morpholinosulfonyl)benzyl)-4-oxo-4,5,6,7-tetrahydro-1H-indol-1-yl)acetate], the 50% inhibitory concentration (IC50) was in the range of 100 to 500 nM.

`CCOC(=O)Cn1c(C)c(Cc2ccccc2S(=O)(=O)N(C)c2ccccc2)c2c1CC(C)(C)CC2=O` [Example I-66, ethyl 2-(2,6,6-trimethyl-3-(2-(N-methyl-N-phenylsulfamoyl)benzyl)-4-oxo-4,5,6,7-tetrahydro-1H-indol-1-yl)acetate] had an IC50 of 5 to 100 nM.

`Cc1c(Cc2ccccc2S(=O)(=O)N2CCCC2)c2c(n1CC(=O)O)CC(C)(C)C(C)(C)C2=O` [Example I-95, 2-(2,5,5,6,6-pentamethyl-4-oxo-3-(2-(pyrrolidin-1-ylsulfonyl)benzyl)-4,5,6,7-tetrahydro-1H-indol-1-yl)acetic acid]: the IC50 is less than 5 nM.

Consider `Cc1c(Cc2ccccc2S(=O)(=O)N2CCOCC2)c2c(n1CC(=O)OC(C)C)CC(C)(C)CC2=O` [Example I-60, isopropyl 2-(2,6,6-trimethyl-3-(2-(morpholinosulfonyl)benzyl)-4-oxo-4,5,6,7-tetrahydro-1H-indol-1-yl)acetate], for which the IC50 is greater than 500 nM.
